Test results as given in EP1224299B1, “RECOMBINANT PROTEINS AND PEPTIDES FOR ENDOTOXIN BIOSENSORS, ENDOTOXIN REMOVAL, AND ANTI-MICROBIAL AND ANTI-ENDOTOXIN THERAPEUTICS” (priority 1999, dated 2001).
Like-named read-outs stand apart in the source and are kept apart here. Ends that are not written are not given here. Peptide text beside a SMILES is read from it.

Tests used:
P. aeruginosa ATCC 27853 = experiment: Killing rate assay; type: cell-based; details: 0.06 µg/ml, initial 10^9 cfu/ml; concentration achieving MBC90
Source text: The killing rate assay was adapted from the MBC test above, with different contact time of peptides with the bacteria arrested at regular intervals and plated for colony count. An initial density of 10^9 cfu/ml was used. […] This is one of the important features of an effective therapeutic agent.

[1] = LPS-induced lethality in galactosamine-sensitized mice; type: in vivo, C57BL/6J mice; details: for protection: 25 and 75 µg peptide; for decrease in LPS-induced lethality: 25 or 75 µg, pre-incubated with LPS 30 min prior to i.p. injection
Protocol: The anti-endotoxin potency of SSCrFCES was investigated in C57BL/6J mice. Mice are typically resistant to endotoxin. However, the sensitivity of mice to endotoxin can be enhanced > 1,000-fold by co-injection with a liver-specific inhibitor, galactosamine (31). In our study, intraperitoneal (i.p.) injection of 2.5 ng of E. coli 055:B5 LPS together with 15 mg of galactosamine hydrochloride in 0.2 ml of saline induced nearly 100% lethality in 18-25 g C57BL/6J mice within 7 hours. Various concentrations of SSCrFCES (1, 2, and 4 µM) and synthetic peptides (25 and 75 µg) were injected intravenously (i.v.) through tail vein 10 minutes after i.p. injection of the LPS-galactosamine mixture. Lethality was observed over 3 days after injection. Statistical analysis were performed using the Kaplan-Meier test (32) and log rank pairwise test.

[2] = Limulus Kinetic-QCL assay, inhibition of endotoxin-induced LAL reaction; type: biochemical, E.coli 055:B5; details: 200 EU/ml LPS, 1 h at 37 °C, 1000-fold dilution; read-out: 50% endotoxin-neutralizing concentration (ENC50)
Source text: The Limulus Kinetic-QCL is a quantitative, kinetic assay for the detection of gram-negative bacterial endotoxin. This assay utilizes the initial part of LAL endotoxin reaction to activate an enzyme, which in turn releases p-nitroaniline from a synthetic substrate, producing a yellow color. The time required before the appearance of a yellow color is inversely proportional to the amount of endotoxin present. Throughout the assay, the absorbance at 405 nm of each well of the microplate was monitored. Using the initial absorbance reading of each well as its own blank, the time required for the absorbance to increase 0.200 absorbance units were calculated as Reaction Time.
Briefly, 25 µl of endotoxin solution (LPS, E.coli 055:B5) at 200 EU/ml was mixed with an equal volume of SSCrFCES at 1 µM, in a series of 2-fold dilutions in LAL reagent water in disposable endotoxin-free glass dilution tubes (BioWhittaker) and incubated at 37°C for one hour. […] The endotoxin activity was then quantified with Limulus Kinetic-QCL. […] The plate was then pre-incubated for > 10 minutes in a temperature-controlled ELISA plate reader. […] The absorbance at 405 nm of each well of the microtitre plate was monitored at time intervals of 5 minutes over a period of 2 hours. A 5 second automix was activated prior to reading. […]
The high sensitivity of the assay allowed for very low levels of endotoxin to be detected. […]

[3] = Hill's plot for interaction between synthetic peptides and lipid A; type: binding
[4] = test system: 30 clinical strains of P. aeruginosa; experiment: Microbicidal concentration (MBC) assay, 30 clinical strains; type: cell-based; details: for MBC50: concentration of peptide required to kill 50% of the strains
Protocol: Test strains cultured on Mueller-Hinton agar (MHA, Becton Dickinson, USA) were inoculated into 10 ml Mueller-Hinton broth (MHB, Becton Dickinson, USA) and grown overnight at 37°C in a shaker incubator (Model 4536, Forma Scientific, Inc., USA) at 230 rpm. Overnight broth cultures were diluted to give a final cell density of 10^5 colony forming units/ml (cfu/ml). One hundred microliters of the bacterial suspension was dispensed into sterile polypropylene 8-strip PCR-tubes (Quality Scientific Plastics, USA). Eleven microliters of serially diluted sushi peptides, ranging in final concentrations of 0.03-4 µg/ml, were then added. The peptides were constituted at 10 times the required test concentrations in 0.01% acetic acid and 0.2% bovine serum albumin (BSA). Positive controls were cultures without test peptides. Uninoculated MHB was used as negative control. All tests were carried out in triplicate.
Cultures were incubated at 37°C for 18-24 h, with the PCR-tubes held in horizontal position and shaken at 230 rpm. Cell counts were determined by standard drop-count method. The killing efficiency for the four sushi peptides were calculated based on standard drop-count method.

Human erythrocytes = experiment: Hemolysis assay, human erythrocytes; type: cell-based; details: for Concentration of peptide to induce 50% haemolysis: red cells of human; for Hemolytic activity: at 100 µg/ml, 0.4% erythrocytes, 1 h
Protocol: Human and rabbit erythrocytes were both used to test the hemolytic activities of the peptides. Whole blood was collected in heparinized sterile syringe, transferred to sterile borosilicate tube and centrifuged at 1200 g for 5 minutes at 4°C. The supernatant including the leukocytes above the erythrocyte pellet was discarded. The erythrocytes were washed 3 times using three volumes of pre-chilled pyrogen-free saline (PFS). An erythrocyte suspension at 0.4% was prepared for the hemolysis assay. Serial two-fold dilutions of the peptides was prepared in PFS and 100 µl aliquots were added to equal volumes of 0.4% erythrocyte solution in a 96-well microtiter plate (Nunclon™ Δ surface, Nunc) to give final peptide concentrations ranging from 6 to 100 µg/ml. The mixtures were incubated at 37°C for 1 h. The intact erythrocytes were then pelleted by centrifuging at 1000 g for 5 min. One hundred µl of the supernatant was transferred to a new 96-well microtiter plate and the amount of hemoglobin released into the supernatant was determined by reading the absorbance at 414nm using a SPECTRAmax™ 340 plate reader with SOFTmax PRO™ version 1.2.0. A positive control with 100 µl of 0.4% erythrocyte lysed in 1% Triton-X 100 was taken as 100% lysis. The negative control was the erythrocytes in PFS alone, which gave minimal lysis. This was taken as 0%.

P.aeruginosa = details: cited from earlier work
[5] = ligand LPS S. minnesota Re595; read-out: Equilibrium constant; cited from earlier work

Molecule: CC[C@H](C)[C@H](NC(=O)[C@H](CCCNC(=N)N)NC(=O)[C@H](C)NC(=O)[C@H](CCSC)NC(=O)CNC(=O)[C@H](CCCCN)NC(=O)[C@H](CC(C)C)NC(=O)[C@H](CCCCN)NC(=O)[C@H](Cc1ccccc1)NC(=O)CN)C(=O)N[C@@H](CO)C(=O)N[C@@H](CS)C(=O)N[C@@H](CC(C)C)C(=O)N1CCC[C@H]1C(=O)N[C@@H](CC(N)=O)C(=O)NCC(=O)N[C@@H](CCC(N)=O)C(=O)N[C@@H](Cc1c[nH]c2ccccc12)C(=O)N[C@@H](CO)C(=O)N[C@@H](CC(N)=O)C(=O)N[C@@H](Cc1ccccc1)C(=O)N1CCC[C@H]1C(=O)N1CCC[C@H]1C(=O)N[C@@H](CCCCN)C(=O)N[C@@H](CS)C(=O)N[C@H](C(=O)N[C@@H](CCCNC(=N)N)C(=O)N[C@@H](CCC(=O)O)C(=O)N[C@@H](CS)C(=O)N[C@@H](C)C(=O)N[C@@H](CCSC)C(=O)N[C@H](C(=O)N[C@@H](CO)C(=O)N[C@@H](CO)C(=O)O)C(C)C)[C@@H](C)CC [S1] (H-GFKLKGMARISCLPNGQWSNFPPKCIRECAMVSS-OH; N-terminus and C-terminus assumed)
- Killing rate (time to MBC90) (P. aeruginosa ATCC 27853): 7 min
- protection [1]: 22-100%
- decrease in LPS-induced lethality [1]: 20-55%
- EC50 [2]: 2.25 µM
- Hill's plot co-operativity n [3]: 2.42
- MBC90 [4]: 0.008 µM
- MBC50 [4]: ≤0.03 mg/L
- Concentration of peptide to induce 50% haemolysis (Human erythrocytes): 290 µg/mL

Molecule: HAEHKVKIGVEQKYGQFPQGTEVTYTCSGNYFLM [S3]
- Concentration of peptide to induce 50% haemolysis (Human erythrocytes): 160 µg/mL

Molecule: Ranalexin
- MBC50 (P.aeruginosa): >128 mg/L

Molecule: Indolicin: cationic peptide (ILPWKWPWWPWRR; ends and bridges not checked; UniProt P33046 131-143, looked up)
- MBC50 (P.aeruginosa): 64 mg/L
- MBC90 (P.aeruginosa): >128 mg/L

Molecule: Magainin II
- MBC50 (P.aeruginosa): 64 mg/L

Molecule: CC[C@H](C)[C@H](NC(=O)[C@H](CCCCN)NC(=O)[C@H](C)NC(=O)[C@H](CCCCN)NC(=O)CNC(=O)[C@H](CCCCN)NC(=O)[C@H](CC(C)C)NC(=O)[C@H](CCCCN)NC(=O)[C@H](Cc1ccccc1)NC(=O)CN)C(=O)N[C@@H](CO)C(=O)N[C@@H](CS)C(=O)N[C@@H](CC(C)C)C(=O)N1CCC[C@H]1C(=O)N[C@@H](CC(N)=O)C(=O)NCC(=O)N[C@@H](CCC(N)=O)C(=O)N[C@@H](Cc1c[nH]c2ccccc12)C(=O)N[C@@H](CO)C(=O)N[C@@H](CC(N)=O)C(=O)N[C@@H](Cc1ccccc1)C(=O)N1CCC[C@H]1C(=O)N1CCC[C@H]1C(=O)N[C@@H](CCCCN)C(=O)N[C@@H](CS)C(=O)N[C@H](C(=O)N[C@@H](CCCNC(=N)N)C(=O)N[C@@H](CCC(=O)O)C(=O)N[C@@H](CS)C(=O)N[C@@H](C)C(=O)N[C@@H](CCSC)C(=O)N[C@H](C(=O)N[C@@H](CO)C(=O)N[C@@H](CO)C(=O)O)C(C)C)[C@@H](C)CC [S1Δ] (H-GFKLKGKAKISCLPNGQWSNFPPKCIRECAMVSS-OH; N-terminus and C-terminus assumed)
- Killing rate (time to MBC90) (P. aeruginosa ATCC 27853): 7 min
- protection [1]: 22-100%
- decrease in LPS-induced lethality [1]: 20-55%
- EC50 [2]: 0.875 µM
- MBC90 [4]: 0.016 µM
- MBC50 [4]: ≤0.03 mg/L
- MBC90 ([4]; concentration of peptide required to kill 90% of the strains): 0.06 mg/L
- Concentration of peptide to induce 50% haemolysis (Human erythrocytes): 295 µg/mL

Molecule: BPI pep85-99 (15 mer): 15 mer peptide of BPI (IKISGKWKAQKRFLK; UniProt P17213 116-130, looked up, fragment)
- Kd [5]: 1.76 µM

Molecule: Nisin
- MBC50 (P.aeruginosa): 128 mg/L

Molecule: HAEHKVKIKVKQKYGQFPQGTEVTYTCSGNYFLM [S3Δ]
- Hemolytic activity (Human erythrocytes): 35%
- Hemolytic activity (Human erythrocytes; listed as SΔ3): 35% at 100 µg/ml
- Concentration of peptide to induce 50% haemolysis (Human erythrocytes): 120 µg/mL
